What was measured:
[1] = biological target: T1, Growth factor receptor-bound protein 2 (Homo sapiens, UniProt P62993); test: Displacement of FITC-Ahx-PVPePYINQSVPKRK-NH2 from N-terminal His6-tagged human full length GRB2 (1 to 217 residues) expressed in Escherichia coli by fluorescence anisotropy assay
[2] = Permeability of compound assessed as percentage transport at 500 uM after 5 hrs by PAMPA assay; format: ADME
[3] = Apparent permeability of compound at 500 uM after 5 hrs by PAMPA assay; format: ADME
[4] = biological target: T1, Growth factor receptor-bound protein 2

Row | IC50 [1] [nM] | permeability [2] [%] | Papp at 5 h, 500 µM [3] [×10⁻⁶ cm/s] | Ki [4] [nM] | Structure (SMILES)
1 | > 20000 | – | – | – | COC(=O)Cc1ccc([C@H]2/C=C/C[C@@H](Cc3cccc4ccccc34)CNC(=O)[C@H](CC(N)=O)NC(=O)C3(CCCCC3)NC(=O)C2)cc1
2 | 740 | 24.3 | 19.2 | 140 | NC(=O)C[C@@H]1NC(=O)C2(CCCCC2)NC(=O)C[C@@H](c2ccc(CC(=O)O)cc2)/C=C/C[C@@H](Cc2cccc3ccccc23)CNC1=O
3 | 350 | 0 | – | 16 | NC(=O)C[C@@H]1NC(=O)C2(CCCCC2)NC(=O)C[C@@H](c2ccc(CP(=O)(O)O)cc2)/C=C/C[C@@H](Cc2cccc3ccccc23)CNC1=O
